Results as given in patent US12661410B2, “Compounds for targeted degradation of RET” (C4 Therapeutics, Inc., priority 2020, dated 2026).
Residue numbers refer to the chain shown, from its start. Read-outs that look alike come from different tables or passages of the source.

Key:
RET(KD: 658-1114 G810R) = target: T1, RET(KD: 658-1114 G810R) (Homo sapiens, UniProt P07949, G810R); assay: HiBiT-Degradation, RET G810R degradation assay (Nano-Glo HiBiT Lytic), 293T.165 cells; type: cell-based; details: for Emax / DC50: 6.0 hours; for Emax: read-out: 293T.165 RET(KD: 658-1114 G810R) 6.0 hours (Emax); for DC50: read-out: 293T.165 RET(KD: 658-1114 G810R) 6.0 hours (DC50)
T1 construct: 658-1114; expressed in transfected cells; host or cells: 293T.165 (293T cells, generated in-house)
T1 sequence (P07949 658-1114 G810R): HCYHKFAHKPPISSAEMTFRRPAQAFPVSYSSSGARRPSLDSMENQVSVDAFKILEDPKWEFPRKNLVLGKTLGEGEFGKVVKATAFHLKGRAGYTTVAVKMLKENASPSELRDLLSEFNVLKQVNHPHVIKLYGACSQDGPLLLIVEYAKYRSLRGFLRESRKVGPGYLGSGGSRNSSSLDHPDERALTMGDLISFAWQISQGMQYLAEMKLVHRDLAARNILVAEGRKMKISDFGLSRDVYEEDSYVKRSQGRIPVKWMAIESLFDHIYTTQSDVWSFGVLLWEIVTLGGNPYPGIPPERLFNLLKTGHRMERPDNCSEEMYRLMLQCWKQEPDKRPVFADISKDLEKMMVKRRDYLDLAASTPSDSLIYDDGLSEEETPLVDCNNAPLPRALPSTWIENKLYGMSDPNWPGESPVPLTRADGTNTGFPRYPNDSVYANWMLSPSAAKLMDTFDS
Procedure, shortened: (§1)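 HEK293T lines stably expressing HiBiT-tagged RET kinase domain (WT: 293T.144; G810R: 293T.165) were treated with degraders for 6 h in duplicate, 11-point half-log series from 10 μM top dose. Lysis with Nano-Glo HiBiT Lytic reagent, luminescence read; DC50 and Emax (% remaining protein) derived from dose-response curves.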

RET (658-1114) = target: T2, RET (658-1114) (Homo sapiens, UniProt P07949); assay: HiBiT-Degradation, RET wild-type degradation assay (Nano-Glo HiBiT Lytic), 293T.144 cells; type: cell-based; details: for DC50 / Emax: 6.0 hours; for DC50: read-out: 293T.144 RET (658-1114) 6.0 hours (DC50); for Emax: read-out: 293T.144 RET (658-1114) 6.0 hours (Emax)
T2 construct: 658-1114; expressed in transfected cells; host or cells: 293T.144 (293T cells, generated in-house)
T2 sequence (P07949 658-1114): T1 sequence (P07949 658-1114 G810R) with R153G
Procedure, shortened: as §1

[1] = half-maximal degradation concentration

| Compound | 293T.165 RET(KD: 658-1114 G810R) 6.0 hours (IP) [nM] (RET(KD: 658-1114 G810R)) | 293T.165 RET(KD: 658-1114 G810R) 6.0 hours (Emax) (RET(KD: 658-1114 G810R); % remaining protein) | 293T.165 RET(KD: 658-1114 G810R) 6.0 hours (DC50) [nM] (RET(KD: 658-1114 G810R); [1]) | 293T.144 RET (658-1114) 6.0 hours (IP) [nM] (RET (658-1114)) | DC50 (RET (658-1114); [1]) | 293T.144 RET (658-1114) 6.0 hours (Emax) (RET (658-1114); % remaining protein) | Emax (RET(KD: 658-1114 G810R); % remaining protein) | DC50 (RET(KD: 658-1114 G810R); [1]) | 293T.165 RET(KD: 658-1114 G810R) 6.0 hours (Emax) (RET(KD: 658-1114 G810R); HiBiT-Degradation) | 293T.165 RET(KD: 658-1114 G810R) 6.0 hours (IP) [nM] (RET(KD: 658-1114 G810R); HiBiT-Degradation) | DC50 (RET(KD: 658-1114 G810R); HiBiT-Degradation) | 293T.144 RET (658-1114) 6.0 hours (IP) [nM] (RET (658-1114); HiBiT-Degradation) | DC50 (RET (658-1114); HiBiT-Degradation) | Emax (RET (658-1114); HiBiT-Degradation) | Emax (RET (658-1114); % remaining protein) |
| --- | --- | --- | --- | --- | --- | --- | --- | --- | --- | --- | --- | --- | --- | --- | --- |
| CCC1(C(=O)NC(C)C)CCN(c2ccc(-c3nc(-c4cnn(C5CCC(CCN6CCC(c7ccc(NC8CCC(=O)NC8=O)cc7F)CC6)CC5)c4)cn4ncc(C#N)c34)cn2)CC1 (stereo not shown) [Compound 181, 1-(5-(3-Cyano-6-(1-((1r, 4r)-4-(2-(4-(4-((2,6-dioxopiperidin-3-yl)amino)-2-fluorophenyl)piperidin-1-yl)ethyl)cyclohexyl)-1H-pyrazol-4-yl)pyrazolo[1,5-a]pyrazin-4-yl)pyridin-2-yl)-4-ethyl-N-isopropylpiperidine-4-carboxamide] | ++++ (<50 nM = ++++) | ++++ (<30% = ++++) | ++++ (<50 nM = ++++) | ++++ (<50 nM = ++++) | < 50 nM | ++++ (<30% = ++++) | – | – | – | – | – | – | – | – | – |
| N#Cc1cnn2cc(-c3ccc(N4CCN(C(=O)CC5(O)CCN(c6ccc(NC7CCC(=O)NC7=O)cc6F)CC5)CC4)cc3)cc(-c3ccc(N4CCN(C(=O)Cc5ccc(F)cn5)CC4)nc3)c12 (stereo not shown) [Compound 26, 6-[4-[4-[2-[1-[4-[(2,6-Dioxo-3-piperidyl)amino]-2-fluoro-phenyl]-4-hydroxy-4-piperidyl]acetyl]piperazin-1-yl]phenyl]-4-[6-[4-[2-(5-fluoro-2-pyridyl)acetyl]piperazin-1-yl]-3-pyridyl]pyrazolo[1,5-a]pyridine-3-carbonitrile] | – | – | – | – | – | – | < 50% | < 50 nM | +++ (<50% = +++) | ++++ (< 50 nM = ++++) | < 50 nM | ++++ (< 50 nM = ++++) | < 50 nM | < 30% | – |
| COc1ccc(CN2C3CC2CN(c2ccc(-c4nc(-c5cnn([C@H]6CC[C@@H](N7CCC(c8cc9c(cc8F)c(N8CCC(=O)NC8=O)nn9C)C(F)(F)C7)CC6)c5)cn5ncc(C#N)c45)cn2)C3)cn1 (relative stereo) [Compound 200, 6-(1-((1s, 4s)-4-(4-(3-(2,4-Dioxotetrahydropyrimidin-1(2H)-yl)-5-fluoro-1-methyl-1H-indazol-6-yl)-3,3-difluoropiperidin-1-yl)cyclohexyl)-1H-pyrazol-4-yl)-4-(6-(6-((6-methoxypyridin-3-yl)methyl)-3,6-diazabicyclo[3.1.1]heptan-3-yl)pyridin-3-yl)pyrazolo[1,5-a]pyrazine-3-carbonitrile] | ++++ (<50 nM = ++++) | – | – | ++++ (<50 nM = ++++) | < 50 nM | – | < 50% | < 50 nM | – | – | – | – | – | – | < 30% |
| N#Cc1cnn2cc(-c3cnn([C@H]4CC[C@H](N5CCN(c6c(F)cc(N[C@@H]7CCC(=O)NC7=O)cc6F)CC5)CC4)c3)nc(-c3ccc(N4CCC5(CC4)OCc4cccnc45)nc3)c12 (racemic) [Compound 218, 6-[1-[4-[4-[2,6-difluoro-4-[[rac-(3R)-2,6-dioxo-3-piperidyl]amino]phenyl]piperazin-1-yl]cyclohexyl]pyrazol-4-yl]-4-(6-spiro[5H-furo[3,4-b]pyridine-7,4′-piperidine]-1′-yl-3-pyridyl)pyrazolo[1,5-a]pyrazine-3-carbonitrile] | ++++ (<50 nM = ++++) | – | – | ++++ (<50 nM = ++++) | < 50 nM | – | < 30% | < 50 nM | – | – | – | – | – | – | < 30% |
| N#Cc1cnn2cc(-c3ccc(N4CCN(C(=O)CC5(O)CCN(c6ccc(NC7CCC(=O)NC7=O)cc6)CC5)CC4)cc3)cc(-c3ccc(N4CCN(C(=O)Cc5ccc(F)cn5)CC4)nc3)c12 (stereo not shown) [Compound 49, 6-[4-[4-[2-[1-[4-[(2,6-dioxo-3-piperidyl)amino]phenyl]-4-hydroxy-4-piperidyl]acetyl]piperazin-1-yl]phenyl]-4-[6-[4-[2-(5-fluoro-2-pyridyl)acetyl]piperazin-1-yl]-3-pyridyl]pyrazolo[1,5-a]pyridine-3-carbonitrile] | – | – | – | – | – | – | < 50% | < 100 nM | +++ (<50% = +++) | ++++ (< 50 nM = ++++) | < 100 nM | ++++ (< 50 nM = ++++) | < 50 nM | < 30% | – |
| CCC1(C(=O)NC(C)C)CCN(c2ccc(-c3cc(-c4cnn([C@H]5CC[C@H](N6CCC(c7ccc(N[C@H]8CCC(=O)NC8=O)cc7F)CC6)CC5)c4)cn4ncc(C#N)c34)cn2)CC1 (single isomer, unassigned) [Compound 194] | ++++ (<50 nM = ++++) | – | – | ++++ (<50 nM = ++++) | < 50 nM | – | < 30% | < 50 nM | – | – | – | – | – | – | < 30% |
| Cn1nc(N2CCC(=O)NC2=O)c2cc(F)c(N3CCN([C@H]4CC[C@@H](n5cc(-c6cn7ncc(C#N)c7c(-c7ccc(N8C[C@H]9COC[C@@H](C8)N9Cc8ccc(=O)[nH]c8)nc7)n6)cn5)CC4)CC3)cc21 (single isomer, unassigned) [Compound 153] | ++++ (<50 nM = ++++) | – | – | ++++ (<50 nM = ++++) | < 50 nM | – | < 30% | < 100 nM | – | – | – | – | – | – | < 30% |
| N#Cc1cnn2cc(-c3cnn([C@H]4CC[C@@H](N5CCN(c6ccc(N[C@H]7CCC(=O)NC7=O)cc6F)CC5)CC4)c3)nc(-c3ccc(N4CC5CC(C4)N5C(=O)c4c(F)cccc4F)nc3)c12 (single isomer, unassigned) [Compound 171] | ++++ (<50 nM = ++++) | – | – | ++++ (<50 nM = ++++) | < 50 nM | – | < 30% | < 50 nM | – | – | – | – | – | – | < 30% |
| CCC1(C(=O)NC(C)C)CCN(c2ccc(-c3nc(-c4cnn([C@H]5CC[C@H](N6CCC(c7ccc(N[C@H]8CCC(=O)NC8=O)cc7F)CC6)CC5)c4)cn4ncc(C#N)c34)cn2)CC1 (single isomer, unassigned) [Compound 123] | ++++ (<50 nM = ++++) | – | – | ++++ (<50 nM = ++++) | < 50 nM | – | < 30% | < 50 nM | – | – | – | – | – | – | < 30% |
| CCC1(C(=O)NC(C)(C)C)CCN(c2ccc(-c3nc(-c4cnn([C@H]5CC[C@H](N6CCC(c7ccc(N[C@H]8CCC(=O)NC8=O)cc7F)CC6)CC5)c4)cn4ncc(C#N)c34)cn2)CC1 (single isomer, unassigned) [Compound 145] | ++++ (<50 nM = ++++) | – | – | ++++ (<50 nM = ++++) | < 50 nM | – | < 30% | < 50 nM | – | – | – | – | – | – | < 30% |
